Experiments:
human MCT3 = target: T1, human MCT3 (Homo sapiens, UniProt O95907); experiment: MCT filter binding assay, yeast membranes, radioligand specific binding; conditions: ~2.5 nM radioligand
T1 construct: the full length open reading frame of human MCT3 was subcloned into the S. cerevisiae expression plasmid pACES14; made in house; host or cells: Saccharomyces cerevisiae BY4742 (jen1 deletion), membrane preparation; plasmid pACES14-hMCT3
T1 sequence (O95907 1-504): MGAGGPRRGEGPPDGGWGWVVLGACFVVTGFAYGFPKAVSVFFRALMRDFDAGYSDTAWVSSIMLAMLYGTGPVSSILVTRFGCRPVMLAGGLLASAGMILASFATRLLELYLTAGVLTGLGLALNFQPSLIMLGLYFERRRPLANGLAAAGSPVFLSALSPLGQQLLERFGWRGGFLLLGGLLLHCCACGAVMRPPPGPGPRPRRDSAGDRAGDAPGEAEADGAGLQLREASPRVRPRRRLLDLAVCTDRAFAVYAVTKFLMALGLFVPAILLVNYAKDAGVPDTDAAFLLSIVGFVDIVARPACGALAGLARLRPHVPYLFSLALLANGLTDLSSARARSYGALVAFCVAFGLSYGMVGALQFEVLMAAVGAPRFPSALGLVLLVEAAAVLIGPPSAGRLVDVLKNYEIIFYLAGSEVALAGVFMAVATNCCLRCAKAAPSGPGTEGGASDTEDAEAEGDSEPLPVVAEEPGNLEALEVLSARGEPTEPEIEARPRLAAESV
Experimental: (§1) For yeast cells transformed with expression plasmids containing the human MCT 1-4 ORFs the ability of membrane preparations to bind radioligand was determined using a single ligand concentration/multi protein concentration binding assay. This generated an estimate of the amount of active binding protein present in each membrane preparation. The ligand concentration used will give an estimate of Bmax that is approximately 90% of the true value. 10 μl of ligand A, B or C that had been diluted 50 fold with assay buffer (50 mM HEPES, 0.1 mM EDTA, 0.15 M NaCl, pH 7.5, 0.5% BSA) was dispensed into wells of a polypropylene microtitre plate. This gives a final radiolabelled ligand concentration of ˜2.5 nM. […] The membranes were diluted to give a known amount/180 μl assay buffer. This is typically in the […] range. For the membranes with high binding site number a more dilute membrane preparation should be added. 180 μl of each membrane solution was then added to each well and incubated at 2 hours at room temperature with shaking. The membranes were harvested onto GF-B filter plates and washed with assay buffer without BSA, dried, scintillant added and counts detected using the relevant program for each ligand on a Packard Top Count plate reader.

human MCT2 = target: T2, human MCT2 (Homo sapiens, UniProt O60669); experiment: as above; conditions: ~2.5 nM radioligand
T2 construct: The full length open reading frame for human MCT2 was then subcloned into the S. cerevisiae expression plasmid, pACES14; made in house; host or cells: Saccharomyces cerevisiae BY4742 (jen1 deletion), membrane preparation; plasmid pACES14-hMCT2
T2 sequence (O60669 1-478): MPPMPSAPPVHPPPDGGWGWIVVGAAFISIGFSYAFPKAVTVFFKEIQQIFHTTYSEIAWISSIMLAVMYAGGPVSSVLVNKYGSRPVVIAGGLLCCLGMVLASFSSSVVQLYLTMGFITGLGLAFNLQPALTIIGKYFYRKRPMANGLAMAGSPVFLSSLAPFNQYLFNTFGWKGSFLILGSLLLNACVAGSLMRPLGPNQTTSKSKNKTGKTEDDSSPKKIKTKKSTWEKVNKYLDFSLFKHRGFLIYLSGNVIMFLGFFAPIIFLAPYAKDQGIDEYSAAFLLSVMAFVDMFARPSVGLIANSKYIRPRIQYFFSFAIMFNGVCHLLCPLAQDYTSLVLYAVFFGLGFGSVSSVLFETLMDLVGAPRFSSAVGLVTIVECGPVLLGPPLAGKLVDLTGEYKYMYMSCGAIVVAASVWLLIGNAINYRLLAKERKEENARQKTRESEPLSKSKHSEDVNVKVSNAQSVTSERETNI
Experimental: as §1

## CC(C)Cc1nn(C)c(=O)c2c(SCCCO)n(Cc3ccccc3[125I])cc12 [Ligand A, 2,6-Dihydro-7-[(3-hydroxypropyl)thio]-6-[(2-[^125I]iodophenyl)methyl]-2-methyl-4-(2-methylpropyl)-1H-pyrrolo[3,4-d]pyridazin-1-one]
Human MCT3; MCT3 (2 ug)
  Specific binding (cpm) Average: 0 cpm
Human MCT3; MCT3 (20 ug)
  Specific binding (cpm) Average: 0 cpm
Human MCT2; MCT2 (2 ug)
  Specific binding (cpm) Average: 7286 cpm
Human MCT2; MCT2 (20 ug)
  Specific binding (cpm) Average: 14769 cpm

Source: US20040072746A1, “Inhibitors of monocarboxylate transport” (priority 2001, published 2004)
